≈ marks a conversion by molar mass, not a printed value. Calls of active or inactive are those of the source. No cut-off for these calls is given here.
Key:
[1] = tested on: Candida albicans; assay: Antifungal activity against Fluconazole-resistant Candida albicans 56214 assessed as inhibition of fungal growth incubated for 48 hrs; type: functional
[2] = tested on: Candida albicans; assay: Antifungal activity against Candida albicans CGMCC 2.2086 assessed as inhibition of fungal growth incubated for 48 hrs in presence of NH4Cl; type: functional
[3] = tested on: Candida albicans; assay: Induction of ROS generation in Candida albicans CGMCC 2.2086 measured after 60 mins by […] dye based fluorescence assay; type: functional, organism-based; conditions: dose 0.5-128 µM
[4] = Stability of the compound in MgCl2 assessed as change in secondary structure by CD spectra analysis; type: physicochemical
[5] = tested on: Candida albicans; assay: Antibiofilm activity against Candida albicans CGMCC 2.2086 assessed as inhibition of biofilm formation at antifungal MIC measured after 48 hrs by crystal violet staining based assay; type: functional
[6] = tested on: Candida tropicalis; assay: Antifungal activity against Candida tropicalis CGMCC 2.1975 assessed as inhibition of fungal growth incubated for 48 hrs; type: functional
[7] = tested on: Candida albicans; assay: Antifungal activity against Candida albicans CGMCC 2.2086 assessed as inhibition of fungal growth incubated for 48 hrs in presence of NaCl; type: functional
[8] = tested on: Candida albicans; assay: Antifungal activity against Candida albicans SP3902 assessed as inhibition of fungal growth incubated for 48 hrs; type: functional
[9] = Stability of the compound in NH4Cl assessed as change in secondary structure by CD spectra analysis; type: physicochemical
[10] = tested on: Candida albicans; assay: Induction of morphological changes in Candida albicans CGMCC 2.2086 at 1X MIC measured after 60 mins by TEM analysis; type: functional, organism-based
[11] = Hemolytic activity in human red blood cells assessed as hemolysis rate at 512 uM incubated for 1 hr relative to control; type: toxicity, cell-based, Erythrocyte; conditions: read-out: Activity
[12] = tested on: HEK293; assay: Cytotoxicity against HEK293 cells assessed as cell death at 64 uM measured after 8 hrs by calcein-AM and propidium iodide Live/Dead dye staining assay; type: toxicity, cell-based; conditions: human, hek293, 8 h
[13] = tested on: Candida albicans; assay: Induction of Candida albicans CGMCC 2.2086 cell wall permeabilization by NPN probe based assay; type: functional, organism-based; conditions: dose 1-128 µM
[14] = tested on: Candida albicans; assay: Antifungal activity against Candida albicans CGMCC 2.2086 assessed as inhibition of fungal growth incubated for 48 hrs in presence of MgCl2; type: functional
[15] = tested on: Candida albicans; assay: Antifungal activity against Candida albicans 14936 assessed as inhibition of fungal growth incubated for 48 hrs; type: functional
[16] = tested on: Candida albicans; assay: Antifungal activity against Candida albicans CGMCC 2.2086 assessed as inhibition of fungal growth incubated for 48 hrs in presence of FeCl3; type: functional
[17] = tested on: Candida albicans; assay: Antifungal activity against Candida albicans CGMCC 2.2086 assessed as inhibition of fungal growth incubated for 48 hrs in presence of CaCl2; type: functional
[18] = tested on: Candida albicans; assay: Antifungal activity against Fluconazole-resistant Candida albicans 58288 assessed as inhibition of fungal growth incubated for 48 hrs; type: functional
[19] = tested on: Candida albicans; assay: Antifungal activity against Candida albicans CGMCC 2.2086 assessed as inhibition of fungal growth incubated for 2 to 4 hrs in presence of 100% serum; type: functional, organism-based; conditions: time 2-4 hrs
[20] = tested on: Candida albicans; assay: Antifungal activity against Candida albicans CGMCC 2.2086 assessed as inhibition of fungal growth incubated for 48 hrs in presence of ZnCl2; type: functional
[21] = tested on: Candida albicans; assay: Antifungal activity against Candida albicans CGMCC 2.2086 assessed as inhibition of fungal growth incubated for 48 hrs; type: functional
[22] = Stability of the compound in ZnCl2 assessed as change in secondary structure by CD spectra analysis; type: physicochemical
[23] = tested on: Candida albicans; assay: Induction of Candida albicans CGMCC 2.2086 cell wall permeabilization at 128 uM by NPN probe based assay relative to control; type: functional
[24] = tested on: Candida albicans; assay: Antifungal activity against Candida albicans CGMCC 2.2086 assessed as inhibition of fungal growth incubated for 2 hrs in presence of trypsin; type: functional, organism-based
[25] = tested on: Candida albicans; assay: Antifungal activity against Candida albicans SP3903 assessed as inhibition of fungal growth incubated for 48 hrs; type: functional
[26] = tested on: Candida albicans; assay: Antifungal activity against Candida albicans CGMCC 2.2086 assessed as inhibition of fungal growth incubated for 2 hrs in presence of chymotrypsin; type: functional, organism-based
[27] = Stability of the compound in FeCl3 assessed as change in secondary structure by CD spectra analysis; type: physicochemical
[28] = tested on: Cell membrane; assay: Disruption of Candida albicans CGMCC 2.2086 cell membrane at 1X MIC measured after 1 hr by SYTO9/propidium iodide staining based fluorescence microscopic analysis; type: subcellular
[29] = tested on: Candida parapsilosis; assay: Antifungal activity against Candida parapsilosis CGMCC 2.3989 assessed as inhibition of fungal growth incubated for 48 hrs; type: functional; conditions: Lodderomyces parapsilosis
[30] = Stability of the compound in KCl assessed as change in secondary structure by CD spectra analysis; type: physicochemical
[31] = tested on: Candida albicans; assay: Antifungal activity against Candida albicans 17546 assessed as inhibition of fungal growth incubated for 48 hrs; type: functional
[32] = tested on: Candida albicans; assay: Induction of morphological changes in Candida albicans CGMCC 2.2086 assessed as appearance of cell pits at 1X MIC measured after 60 mins by SEM analysis; type: functional, organism-based
[33] = Stability of the compound in NaCl assessed as change in secondary structure by CD spectra analysis; type: physicochemical
[34] = Hemolytic activity in human red blood cells assessed as hemolysis incubated for 1 hr; type: toxicity, cell-based, Erythrocyte
[35] = tested on: Candida albicans; assay: Antifungal activity against Candida albicans CGMCC 2.2086 assessed as inhibition of fungal growth incubated for 48 hrs in presence of KCl; type: functional
[36] = tested on: Candida albicans; assay: Antifungal activity against Candida albicans SP3931 assessed as inhibition of fungal growth incubated for 48 hrs; type: functional
[37] = tested on: Cell membrane; assay: Induction of cytoplasmic membrane depolarization in Candida albicans CGMCC 2.2086 at 0.5 to 2X MIC measured up to 3600 secs by DISC3-5 dye based fluorescence assay; type: subcellular; conditions: time <= 3600.0 sec
[38] = tested on: Candida albicans; assay: Antifungal activity against Candida albicans SP3876 assessed as inhibition of fungal growth incubated for 48 hrs; type: functional
[39] = tested on: Candida albicans; assay: Antifungal activity against Candida albicans CGMCC 2.2086 assessed as inhibition of fungal growth incubated for 2 hrs in presence of protease K; type: functional, organism-based
[40] = Stability of the compound in CaCl2 assessed as change in secondary structure by CD spectra analysis; type: physicochemical
[41] = tested on: Candida albicans; assay: Antifungal activity against Candida albicans 56452 assessed as inhibition of fungal growth incubated for 48 hrs; type: functional
[42] = Proteolytic stability of the compound assessed as protease K (unknown origin)-mediated drug degradation measured after 8 hrs by 16.5% tricine-SDS-PAGE analysis; type: ADME; conditions: human
[43] = Proteolytic stability of the compound assessed as trypsin (unknown origin)-mediated drug degradation measured after 8 hrs by 16.5% tricine-SDS-PAGE analysis; type: ADME; conditions: human
[44] = Proteolytic stability of the compound assessed as chymotrypsin (unknown origin)-mediated drug degradation measured after 8 hrs by 16.5% tricine-SDS-PAGE analysis; type: ADME; conditions: human

Structure (SMILES): CC(C)[C@H](N)C(=O)N[C@H](C(=O)N[C@H](CCCNC(=N)N)C(=O)N[C@@H](CCCNC(=N)N)C(=O)N[C@@H](Cc1c[nH]cn1)C(=O)N[C@H](C(=O)N[C@H](C(=O)N[C@H](C(=O)N[C@H](C(=O)N[C@H](CCCNC(=N)N)C(=O)N[C@@H](CCCNC(=N)N)C(=O)N[C@@H](Cc1c[nH]cn1)C(=O)N[C@H](C(=O)N[C@H](C(=O)N[C@H](C(=O)N[C@H](C(=O)N[C@H](CCCNC(=N)N)C(=O)N[C@@H](CCCNC(=N)N)C(=O)N[C@@H](Cc1c[nH]cn1)C(=O)N[C@H](C(=O)N[C@H](C(N)=O)C(C)C)C(C)C)C(C)C)C(C)C)C(C)C)C(C)C)C(C)C)C(C)C)C(C)C)C(C)C)C(C)C
- MIC95 [1]: 8 µM (≈ 20.4 µg/mL)
- MIC95 [2]: 4 µM
- Activity [3]: Dose-dependent-effect
- Stability [4]: Stable
- inhibition (INH) [5]: 90%
- MIC95 [6]: 4 µM (≈ 10.2 µg/mL)
- MIC95 [7]: 64 µM
- MIC95 [8]: 8 µM (≈ 20.4 µg/mL)
- Stability [9]: Stable
- Activity [10]: inactive
- hemolysis at 1 h, 512 µM [11]: 8.58%
- Activity [12]: Toxic
- Activity [13]: Dose-dependent-effect
- MIC95 [14]: 8 µM
- MIC95 [15]: 8 µM (≈ 20.4 µg/mL)
- MIC95 [16]: 32 µM
- MIC95 [17]: 32 µM
- MIC95 [18]: 8 µM (≈ 20.4 µg/mL)
- growth inhibition (GI) [19]: Active; No Alterations In The Antimicrobial Activity Was Observed In Presence Of Serum
- MIC95 [20]: 8 µM
- MIC95 [21]: 8 µM (≈ 20.4 µg/mL)
- Stability [22]: Stable
- Activity [23]: <=100%
- Activity [24]: Active
- MIC95 [25]: 4 µM (≈ 10.2 µg/mL)
- Activity [26]: Active
- Stability [27]: Stable
- Activity [28]: Active
- MIC95 [29]: 4 µM (≈ 10.2 µg/mL)
- Stability [30]: Stable
- MIC95 [31]: 4 µM (≈ 10.2 µg/mL)
- Activity [32]: Active; Only Limited Number Of Pits Appeared
- Stability [33]: Unstable
- HC50 at 1 h [34]: > 512 µM
- MIC95 [35]: 32 µM
- MIC95 [36]: 8 µM (≈ 20.4 µg/mL)
- Activity [37]: Active
- MIC95 [38]: 8 µM (≈ 20.4 µg/mL)
- Activity [39]: Active
- Stability [40]: Stable
- MIC95 [41]: 4 µM (≈ 10.2 µg/mL)

Structure (SMILES): CC[C@H](C)[C@H](NC(=O)CN)C(=O)NCC(=O)N[C@@H](C)C(=O)N[C@H](C(=O)N[C@@H](CC(C)C)C(=O)N[C@@H](CCCCN)C(=O)N[C@H](C(=O)N[C@@H](CC(C)C)C(=O)N[C@H](C(=O)N[C@H](C(=O)NCC(=O)N[C@@H](CC(C)C)C(=O)N1CCC[C@H]1C(=O)N[C@@H](C)C(=O)N[C@@H](CC(C)C)C(=O)N[C@H](C(=O)N[C@@H](CO)C(=O)N[C@@H](Cc1c[nH]c2ccccc12)C(=O)N[C@H](C(=O)N[C@@H](CCCCN)C(=O)N[C@@H](CCCNC(=N)N)C(=O)N[C@@H](CCCCN)C(=O)N[C@@H](CCCNC(=N)N)C(=O)N[C@@H](CCC(N)=O)C(=O)N[C@@H](CCC(N)=O)C(N)=O)[C@@H](C)CC)[C@@H](C)CC)[C@@H](C)O)[C@@H](C)O)C(C)C)C(C)C [MELITTIN]
- MIC95 [1]: 2 µM (≈ 5.69 µg/mL)
- MIC95 [6]: 2 µM (≈ 5.69 µg/mL)
- Stability [42]: Unstable
- MIC95 [8]: 4 µM (≈ 11.4 µg/mL)
- Stability [43]: Unstable
- Stability [44]: Unstable
- MIC95 [15]: 4 µM (≈ 11.4 µg/mL)
- MIC95 [18]: 4 µM (≈ 11.4 µg/mL)
- MIC95 [21]: 4 µM (≈ 11.4 µg/mL)
- Activity [24]: inactive
- MIC95 [25]: 4 µM (≈ 11.4 µg/mL)
- Activity [26]: inactive
- MIC95 [29]: 2 µM (≈ 5.69 µg/mL)
- MIC95 [31]: 4 µM (≈ 11.4 µg/mL)
- MIC95 [36]: 4 µM (≈ 11.4 µg/mL)
- MIC95 [38]: 4 µM (≈ 11.4 µg/mL)
- Activity [39]: inactive
- MIC95 [41]: 4 µM (≈ 11.4 µg/mL)
